Measurements from US20250170155A1, “NUCLEOSIDE DERIVATIVES AND PRODRUGS THEREOF HAVING VIRAL GROWTH INHIBITORY ACTION” (Shionogi & Co., Ltd., priority 2021, published 2025).
Where two headings read alike, the source gives them in different places.

Columns and labels:
Type in all cases: cell-based
[1] = system: SARS-CoV-2 (hCoV-19/Japan/TY/WK-521/2020 strain); assay: CPE suppression effect confirmation test (SARS-CoV-2, Vero E6/TMPRSS2 cells), antiviral activity; conditions: for EC50: read-out: SARS-CoV-2 EC50 (50% CPE inhibitory concentration), 3 days culture
[2] = Cytotoxic activity evaluation, Vero E6/TMPRSS2 cells; conditions: African green monkey, no virus
Method: (§1) <Operation Procedure (Cytotoxic Activity Evaluation)>
(§2) A 3- to 5-fold serial dilution series of test substances was prepared in DMSO, diluted with 2% FBS/MEM so that the concentration of DMSO was 2%, and dispensed into a 96 well plate (50 μL/well, DMSO final concentration 0.5%). • Dilution and dispensing of cells
(§3) The cells prepared to an appropriate number were seeded at 100 μL/well to the plate into which the test substance was dispensed. Thereafter, the cells were cultured in a CO2 incubator at 37° C. for 3 days. • Dispensing of CellTiter-Glo (registered trademark) 2.0 Reagent
(§4) Same as those described in the section for evaluation of antiviral activity • Measurement of luminescence intensity
(§5) Same as those described in the section for evaluation of antiviral activity
(§6) Excel, TIBCO Spotfire, or a program having equivalent calculation processing capability based on the following calculation formula.

[3] = system: influenza virus (A/WSN/33 (H1N1) strain); assay: CPE suppression effect confirmation test (influenza virus, RPMI 2650 cells), antiviral activity; conditions: for EC50: read-out: Influenza EC50 (50% CPE inhibitory concentration), A/WSN/33 (H1N1), 3 to 6 days
[4] = Cytotoxic activity evaluation, RPMI 2650 cells; conditions: human, no virus, 3 to 6 days
Method: as §1
(§7) On the day before the compound treatment, cells prepared to an appropriate number were seeded in a 96 well plate at 100 μL/well. Thereafter, the cells were cultured in a CO2 incubator at 37° C. • Preparation of 2 μg/mL trypsin/0.5% BSA/MEM
(§8) Same as those described in the section for evaluation of antiviral activity • Dilution and dispensing of test substance
(§9) A 3- to 5-fold serial dilution series of test substances was prepared in DMSO in advance, and diluted with 2 μg/mL trypsin/0.5% BSA/MEM so that the final concentration of DMSO was 0.5% (100 to 200 μL/well). The cells were washed with MEM, and then cultured in a test substance-added medium for 3 to 6 days. Double measurement was performed for each drug. • Dispensing of resazurin solution
(§10) Same as those described in the section for evaluation of antiviral activity • Measurement of fluorescence intensity
as §5
(§11) [formula] [formula] • Calculation of Selectivity Index (SI)

RPMI 2650 cells = assay: Cytotoxic activity evaluation, RPMI 2650 cells; conditions: read-out: Influenza test CC50 (50% cell proliferation inhibitory concentration), no virus, 3 to 6 days
Method: as §1, §7, §8, §9, §10, §5, §11

[5] = system: SARS-CoV-2 (hCoV-19/Japan/TY/WK 521/2020 strain); assay: microbe, parasite or virus in culture; conditions: HEK293T/ACE2-TMPRSS2 cells; for EC50: Severe acute respiratory syndrome coronavirus 2, HEK-293T, 72 h, read-out: SARS-CoV-2 EC50 (50% CPE inhibitory concentration), 293T-AT, 3 days culture
Vero E6/TMPRSS2 cells = assay: Cytotoxic activity evaluation, Vero E6/TMPRSS2 cells; conditions: read-out: SARS-CoV-2 test CC50 (50% cell proliferation inhibitory concentration), no virus, 3 days
Method: as §1, §2, §3, §4, §5, §6

[6] = Cytotoxic activity evaluation, HEK293T/ACE2-TMPRSS2 cells; conditions: human, no virus
Method: as §1
A 3- to 5-fold serial dilution series of test substances was prepared in DMSO, diluted with 2% FIBS/MEM so that the concentration of DMSO was 2%, and dispensed into a 96 or 384/well well plate (50 μL/well or 40 μL/well, DMSO final concentration 0.5%). • Dilution and dispensing of cells
The cells prepared to an appropriate number were seeded at 100 μL/well or 40 μL/well to the plate into which the test substance was dispensed. Thereafter, the cells were cultured in a CO2 incubator at 37° C. for 3 days. • Dispensing of CellTiter-Glo (registered trademark) 2.0 Reagent
as §4, §5, §11

[7] = Severe acute respiratory syndrome coronavirus 2, VeroE6/TMPRSS2, 72 h

Row | SMILES | SARS-CoV-2 SI (Selectivity Index) [1] | EC50 [1, 7] | CC50 at 3 days [2] | SARS-CoV-2 SI (Selectivity Index), 293T-AT [5] | EC50 [5] | CC50 at 3 days [6] | further results
1 | Nc1ncnn2c([C@@H]3N[C@H](CO)[C@@H](O)[C@H]3O)cnc12 [Compound I-001] | <1.22 | > 800 nM | 0.977 µM |  |  |  | Influenza SI (Selectivity Index) [3]: 67.1; EC50 [3]: 1.05 µM; CC50 [4]: 70.5 µM
2 | Nc1ncnn2c([C@@H]3O[C@](F)(CO)[C@@H](O)C3(F)F)ccc12 [Compound I-008] |  |  |  |  |  |  | EC50 [3]: 7.01 µM; CC50 (RPMI 2650 cells): 432 µM
3 | NC(=O)c1cc([C@@H]2N[C@H](CO)[C@@H](O)[C@H]2O)n2ncnc(N)c12 [Compound I-010] | 2488 | 180 nM | 448 µM | 1050 | 0.0395 µM |  | 
4 | N/C(=N\O)c1cc([C@@H]2N[C@H](CO)[C@@H](O)[C@H]2O)n2ncnc(N)c12 [Compound I-016] |  |  |  |  |  |  | EC50 [1]: 1570 nM; CC50 (Vero E6/TMPRSS2 cells): > 500 µM
5 | CC1(C)O[C@@H]2[C@H](O1)[C@@H](CO)N[C@H]2c1cc(/C=N/O)c2c(N)ncnn12 [Compound I-018] |  |  |  |  |  |  | EC50 [3]: 1.06 µM; CC50 (RPMI 2650 cells): > 500 µM
6 | OC[C@H]1N[C@@H](c2ccc3c(NO)ncnn23)[C@H](O)[C@@H]1O [Compound I-020] |  |  |  |  |  |  | EC50 [3]: 20.2 µM; CC50 (RPMI 2650 cells): > 500 µM
7 | Nc1ncnn2c([C@@H]3N[C@H](CO)[C@@H](O)[C@H]3O)cc(O)c12 [Compound I-022] |  |  |  |  |  |  | EC50 [1]: 1030 nM; CC50 (Vero E6/TMPRSS2 cells): 129 µM; EC50 [3]: 105 µM; CC50 (RPMI 2650 cells): > 500 µM
8 | Cl.Cl.Nc1ncnn2c([C@@H]3N[C@H](CO)[C@@H](O)[C@H]3O)cc(-c3c[nH]cn3)c12 [Compound I-023] | 923 | 170 nM | 157 µM |  |  |  | Influenza SI (Selectivity Index) [3]: 52.7; EC50 [3]: 0.983 µM; CC50 [4]: 51.8 µM
9 | Cn1ccc(-c2cc([C@H]3[C@@H]4OC(C)(C)O[C@@H]4[C@@H](CO)N3C(=O)OC(C)(C)C)n3ncnc(N)c23)n1 [Compound I-030] |  |  |  |  |  |  | EC50 [3]: 7.65 µM; CC50 (RPMI 2650 cells): > 500 µM
10 | Cl.Nc1ncnn2c([C@@H]3N[C@H](CO)[C@@H](O)[C@H]3O)cc(-c3nc[nH]n3)c12 [Compound I-037] | 8.63 | 1970 nM | 17 µM |  |  |  | Influenza SI (Selectivity Index) [3]: <1.70; EC50 [3]: > 4 µM; CC50 [4]: 6.81 µM
11 | CC(O)c1cc([C@@H]2N[C@H](CO)[C@@H](O)[C@H]2O)c2ncnc(N)n12 (some centres unmarked) [Compound I-038] |  |  |  |  |  |  | EC50 [3]: 4.41 µM; CC50 (RPMI 2650 cells): > 500 µM
12 | N#C[C@@]1(c2c[nH]c3c(N)ncnc23)O[C@H](CO)[C@@H](O)[C@H]1O [Compound I-048] |  |  |  |  |  |  | EC50 [1]: 40900 nM; CC50 (Vero E6/TMPRSS2 cells): > 500 µM
13 | Cc1cc(-c2cc([C@@H]3N[C@H](CO)[C@@H](O)[C@H]3O)n3ncnc(N)c23)[nH]n1.Cl [Compound I-050] | >11.0 | 45400 nM | > 500 µM |  |  |  | 
14 | Cl.Nc1ncnn2c([C@@H]3N[C@H](CO)[C@@H](O)[C@H]3O)cc(-c3ccc(F)cn3)c12 [Compound I-051] | >6.13 | 81500 nM | > 500 µM |  |  |  | 
15 | Cl.Nc1nc(F)nn2c([C@@H]3N[C@H](CO)[C@@H](O)[C@H]3O)cc(-c3cc[nH]n3)c12 [Compound I-052] | >79.7 | 6270 nM | > 500 µM |  |  |  | 
16 | Nc1ncnn2c([C@@H]3N[C@H](CO)[C@@H](O)[C@H]3O)cc(-c3c[nH]nn3)c12 [Compound I-053] | 677 | 465 nM | 315 µM |  |  |  | 
17 | Cl.N/C(=N\O)c1cc([C@@H]2N[C@H](CO)[C@@H](O)[C@H]2O)n2nc(F)nc(N)c12 [Compound I-056] | >17.7 | 28200 nM | > 500 µM |  |  |  | 

Row | SMILES | SARS-CoV-2 SI (Selectivity Index) [1] | EC50 [1, 7] | CC50 at 3 days [2] | SARS-CoV-2 SI (Selectivity Index), 293T-AT [5] | EC50 [5] | CC50 at 3 days [6] | further results
18 | Cl.NC(=O)c1cc([C@@H]2N[C@H](CO)[C@@H](O)[C@H]2O)n2nc(F)nc(N)c12 [Compound I-057] | 434 | 131 nM | 56.8 µM |  |  |  | 
19 | C#CCNC(=O)c1cc([C@@H]2N[C@H](CO)[C@@H](O)[C@H]2O)n2ncnc(N)c12 [Compound I-075] | >185 | 2700 nM | > 500 µM |  |  |  | 
20 | CN1[C@H](CO)[C@@H](O)[C@@H](O)[C@@H]1c1cc(C(N)=O)c2c(N)ncnn12.Cl [Compound I-076] | >30.7 | 16300 nM | > 500 µM |  |  |  | 
21 | CCn1ccc(-c2cc([C@@H]3N[C@H](CO)[C@@H](O)[C@H]3O)n3ncnc(N)c23)n1.Cl [Compound I-081] |  |  |  | 222 | 1.38 µM | 306 µM | 
22 | Cl.Nc1nc(F)nn2c([C@@H]3N[C@H](CO)[C@@H](O)[C@H]3O)cc(-c3c[nH]nn3)c12 [Compound I-082] |  |  |  | 37.8 | 3.97 µM | 150 µM | 
23 | Cl.Nc1ncnc2c([C@@H]3N[C@H](CO)[C@@H](O)[C@H]3O)cc(-c3c[nH]nn3)n12 [Compound I-083] |  |  |  | 8.71 | 5.2 µM | 45.3 µM | 
24 | Cc1cc(-c2cc([C@@H]3N[C@H](CO)[C@@H](O)[C@H]3O)n3nc(F)nc(N)c23)[nH]n1.Cl [Compound I-084] |  |  |  | 48.2 | 5.33 µM | 257 µM | 
25 | Cn1ncc(-c2cc([C@@H]3N[C@H](CO)[C@@H](O)[C@H]3O)n3ncnc(N)c23)n1 [Compound I-086] |  |  |  | 19.4 | 11.6 µM | 225 µM | 
26 | Cl.Nc1ncnn2c([C@@H]3N[C@H](CO)[C@@H](O)[C@H]3O)cc(-c3cc(O)ccn3)c12 [Compound I-087] |  |  |  | 3.97 | 18.9 µM | 75 µM | 
27 | Cc1nc(-c2cc([C@@H]3N[C@H](CO)[C@@H](O)[C@H]3O)n3ncnc(N)c23)n[nH]1 [Compound I-088] |  |  |  | >16.4 | 30.4 µM | > 500 µM | 
28 | Cc1nc(N)c2c(C(N)=O)cc([C@@H]3N[C@H](CO)[C@@H](O)[C@H]3O)n2n1.Cl [Compound I-089] |  |  |  | >14.2 | 35.3 µM | > 500 µM | 
29 | Cc1cnc(-c2cc([C@@H]3N[C@H](CO)[C@@H](O)[C@H]3O)n3ncnc(N)c23)o1.Cl [Compound I-090] |  |  |  | >13.1 | 38.1 µM | > 500 µM | 
30 | Cc1c[nH]c(-c2cc([C@@H]3N[C@H](CO)[C@@H](O)[C@H]3O)n3ncnc(N)c23)n1 [Compound I-091] |  |  |  | >2.29 | 218 µM | > 250 µM | 
31 | Cl.Nc1ncnn2c([C@@H]3N[C@H](CO)[C@@H](O)[C@H]3O)cc(-c3ccn(CCO)n3)c12 [Compound I-092] |  |  |  | >1577 | 0.317 µM | > 500 µM | 
32 | CCn1cc(-c2cc([C@@H]3N[C@H](CO)[C@@H](O)[C@H]3O)n3ncnc(N)c23)nn1.Cl [Compound I-093] |  |  |  | >2.37 | 211 µM | > 500 µM | 
33 | Cl.Nc1nc(F)nn2c([C@@H]3N[C@H](CO)[C@@H](O)[C@H]3O)cc(-c3ncc[nH]3)c12 [Compound I-094] |  |  |  | >10.2 | 49.1 µM | > 500 µM | 
34 | Cl.[2H]C([2H])(O)[C@H]1N[C@@H](c2cc(C(N)=O)c3c(N)ncnn23)[C@H](O)[C@@H]1O [Compound I-095] |  |  |  | 2769 | 0.0228 µM | 62.9 µM | 
